Among the data in patent US20160145257A1, “SUBSTITUTED XANTHINES AND METHODS OF USE THEREOF” (Hydra Biosciences, Inc., priority 2013, published 2016) are IC50 values, retold here.

Counter-ions that a name gives are not always drawn.

This assay concerns the target T1, hTRPC5 (Homo sapiens, UniProt Q9UL62).
T1 construct: expressed in transfected cells; host or cells: HEK293 TREx cells with inducible TRPC5 expression
T1 sequence (Q9UL62 1-973): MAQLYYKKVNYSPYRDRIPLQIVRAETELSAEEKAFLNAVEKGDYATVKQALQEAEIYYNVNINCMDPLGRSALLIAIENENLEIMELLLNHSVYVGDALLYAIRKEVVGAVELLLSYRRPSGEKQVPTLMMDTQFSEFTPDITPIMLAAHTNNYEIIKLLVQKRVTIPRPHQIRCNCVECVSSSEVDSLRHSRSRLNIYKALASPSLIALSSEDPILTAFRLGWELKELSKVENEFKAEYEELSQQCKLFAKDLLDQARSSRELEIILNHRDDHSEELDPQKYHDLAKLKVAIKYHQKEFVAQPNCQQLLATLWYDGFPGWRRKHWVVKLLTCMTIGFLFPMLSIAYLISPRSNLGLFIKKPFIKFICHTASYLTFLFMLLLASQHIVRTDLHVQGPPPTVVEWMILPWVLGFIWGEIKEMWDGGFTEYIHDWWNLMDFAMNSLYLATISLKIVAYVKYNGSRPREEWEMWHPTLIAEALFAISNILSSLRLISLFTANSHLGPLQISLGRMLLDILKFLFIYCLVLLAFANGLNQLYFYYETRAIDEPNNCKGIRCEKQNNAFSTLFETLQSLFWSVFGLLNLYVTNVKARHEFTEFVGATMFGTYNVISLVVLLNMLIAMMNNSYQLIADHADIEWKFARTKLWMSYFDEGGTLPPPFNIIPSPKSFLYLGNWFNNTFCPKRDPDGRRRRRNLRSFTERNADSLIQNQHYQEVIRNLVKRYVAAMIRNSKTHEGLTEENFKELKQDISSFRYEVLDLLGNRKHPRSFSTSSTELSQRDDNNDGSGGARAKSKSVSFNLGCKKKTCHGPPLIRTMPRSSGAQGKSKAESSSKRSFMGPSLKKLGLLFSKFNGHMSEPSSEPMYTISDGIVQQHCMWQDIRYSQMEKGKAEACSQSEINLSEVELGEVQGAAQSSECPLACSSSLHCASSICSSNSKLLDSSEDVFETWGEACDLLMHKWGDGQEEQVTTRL
In words: Whole-cell patch clamp, block of LaCl3-activated TRPC5 inward current. Format: cell-based. The note with it: TRPC5-expressing HEK293 TREx cells, 80 μM LaCl3, inward current, IC50 estimated from 5 μM and 500 nM, read-out: hTRPC5 Patch La3+ Inwd (nM) (All Batches). Summed up: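 Whole-cell recordings in induced TRPC5-expressing HEK293 TREx cells, holding −40 mV, 400 ms ramps −120 to +100 mV every 5 s; current activated by 80 μM external LaCl3 and 1,400 nM pipette free Ca2+ (pH 7.2 internal, 7.4 external). Inward block at −80 mV, with LaCl3 present; IC50 estimated from testing at 5 μM and 500 nM.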
Regarding `CCc1coc(CSc2nc3c(c(=O)n(C)c(=O)n3C)n2Cc2cccc(Cl)c2)n1` [Compound 134, 7-(3-chlorobenzyl)-8-((4-ethyloxazol-2-yl)methylthio)-1,3-dimethyl-1H-purine-2,6(3H,7H)-dione], the IC50 is 100 to 500 nM.

With `CCOC(=O)CCC(C)c1nc2c(c(=O)n(C)c(=O)n2C)n1Cc1cccc(Br)c1` (stereo not drawn) [Compound 135, Ethyl 4-(7-(3-bromobenzyl)-1,3-dimethyl-2,6-dioxo-2,3,6,7-tetrahydro-1H-purin-8-yl)pentanoate], the IC50 was 500 to 1000 nM.

For `CCOC(=O)C(C)CCc1nc2c(c(=O)n(C)c(=O)n2C)n1Cc1cccc(Br)c1` (stereo not drawn) [Compound 136, Ethyl 4-(7-(3-bromobenzyl)-1,3-dimethyl-2,6-dioxo-2,3,6,7-tetrahydro-1H-purin-8-yl)-2-methylbutanoate], the IC50 was 1000 to 2000 nM.

With `Cn1c(=O)c2c(nc(Oc3cccc(C(F)(F)F)c3)n2Cc2cccc(Cl)c2)n(C)c1=O` [Compound 137, 7-(3-Chlorobenzyl)-1,3-dimethyl-8-(3-(trifluoromethyl)phenoxy)-1H-purine-2,6(3H,7H)-dione], the IC50 was 100 to 500 nM.

On to `Cn1c(=O)c2c(nc(Oc3cccc(C(F)(F)F)c3)n2Cc2cccc(Br)c2)n(C)c1=O` [Compound 138, 7-(3-Bromobenzyl)-1,3-dimethyl-8-(3-(trifluoromethyl)phenoxy)-1H-purine-2,6(3H,7H)-dione], for which the IC50 was 100 to 500 nM.

With `Cn1c(=O)c2c(nc(Oc3cccc(CO)c3)n2Cc2cccc(Cl)c2)n(C)c1=O` [Compound 140], the IC50 is 2000 to 10000 nM.

With `CCCOCCc1nc2c(c(=O)n(C)c(=O)n2C)n1Cc1cccc(CO)c1` [Compound 141], the IC50 was 2000 to 10000 nM.

Take `Cn1c(=O)c2c(nc(Oc3cccc(C(F)(F)F)c3)n2Cc2ccc(Cl)nc2)n(C)c1=O` [Compound 143, 7-((6-chloropyridin-3-yl)methyl)-1,3-dimethyl-8-(3-(trifluoromethyl)phenoxy)-1H-purine-2,6(3H,7H)-dione]: the IC50 was 2000 to 10000 nM.

On to `Cn1c(=O)c2c(nc(Oc3ccc(C(F)(F)F)cc3)n2Cc2ccc(Cl)cc2)n(C)c1=O` [Compound 144], for which the IC50 was 500 to 1000 nM.

`Cn1c(=O)c2c(nc(OCc3cccc(C(F)(F)F)c3)n2Cc2ccc(Cl)cc2)n(C)c1=O` [Compound 145, 7-(4-chlorobenzyl)-1,3-dimethyl-8-(3-(trifluoromethyl)benzyloxy)-1H-purine-2,6(3H,7H)-dione]: the IC50 was less than 100 nM.

Regarding `CCc1coc(CSc2nc3c(c(=O)n(C)c(=O)n3C)n2Cc2ccc(Cl)cc2)n1` [Compound 146, 7-(4-chlorobenzyl)-8-((4-ethyloxazol-2-yl)methylthio)-1,3-dimethyl-1H-purine-2,6(3H,7H)-dione], the IC50 was less than 100 nM.

For `CCc1coc(CSc2nc3c(c(=O)n(C)c(=O)n3C)n2Cc2cccc(F)c2)n1` [Compound 147, 8-((4-ethyloxazol-2-yl)methylthio)-7-(3-fluorobenzyl)-1,3-dimethyl-1H-purine-2,6(3H,7H)-dione], the IC50 is 100 to 500 nM.

With `CCc1coc(CSc2nc3c(c(=O)n(C)c(=O)n3C)n2Cc2ccc(OC(F)(F)F)cc2)n1` [Compound 148, 8-((4-ethyloxazol-2-yl)methylthio)-1,3-dimethyl-7-(4-(trifluoromethoxy)benzyl)-1H-purine-2,6(3H,7H)-dione], the IC50 is 100 to 500 nM.

On to `CCCOCCc1nc2c(c(=O)n(C)c(=O)n2C)n1Cc1ccc(C(N)=O)cc1` [Compound 149], for which the IC50 is 2000 to 10000 nM.

On to `CCCC(=O)C(C)(C)Sc1nc2c(c(=O)n(C)c(=O)n2C)n1Cc1cccc(Br)c1` [Compound 150, 7-(3-bromobenzyl)-1,3-dimethyl-8-(2-methyl-3-oxohexan-2-ylthio)-1H-purine-2,6(3H,7H)-dione], for which the IC50 is less than 100 nM.

For the molecule `CCCOCCc1nc2c(c(=O)n(C)c(=O)n2C)n1Cc1ccc(CO)cc1` [Compound 151], the IC50 is 2000 to 10000 nM.

With `CNCc1cccc(Oc2nc3c(c(=O)n(C)c(=O)n3C)n2Cc2cccc(Cl)c2)c1` [Compound 152, hydrochloride], the IC50 is 2000 to 10000 nM.

Take `CN(C)Cc1cccc(Oc2nc3c(c(=O)n(C)c(=O)n3C)n2Cc2cccc(Cl)c2)c1` [Compound 153, 7-(3-Chlorobenzyl)-8-(3-((dimethylamino)methyl)phenoxy)-1,3-dimethyl-1H-purine-2,6(3H,7H)-dione hydrochloride]: the IC50 is 2000 to 10000 nM.

As for `CCOc1nc2c(c(=O)n(C)c(=O)n2C)n1Cc1cccc(Cl)c1` [Compound 154, 7-(3-Chlorobenzyl)-8-ethoxy-1,3-dimethyl-1H-purine-2,6(3H,7H)-dione], the IC50 was 2000 to 10000 nM.

With `CCc1coc(CSc2nc3c(c(=O)n(C)c(=O)n3C)n2Cc2ccc(F)cc2)n1` [Compound 156, 8-((4-ethyloxazol-2-yl)methylthio)-7-(4-fluorobenzyl)-1,3-dimethyl-1H-purine-2,6(3H,7H)-dione], the IC50 was 100 to 500 nM.

With `CCc1coc(CSc2nc3c(c(=O)n(C)c(=O)n3C)n2Cc2ccc(Br)cc2)n1` [Compound 157, 7-(4-bromobenzyl)-8-((4-ethyloxazol-2-yl)methylthio)-1,3-dimethyl-1H-purine-2,6(3H,7H)-dione], the IC50 is less than 100 nM.

In the case of `CCCOCCc1nc2c(c(=O)n(C)c(=O)n2C)n1Cc1ccc(C(C)=O)cc1` [Compound 158], the IC50 is 2000 to 10000 nM.

`CCCOCCc1nc2c(c(=O)n(C)c(=O)n2C)n1Cc1cccc(C(C)=O)c1` [Compound 159]: the IC50 was 2000 to 10000 nM.

Regarding `COc1cccc(Cn2c(Oc3cccc(OC(F)(F)F)c3)nc3c2c(=O)n(C)c(=O)n3C)c1` [Compound 160, 7-(3-methoxybenzyl)-1,3-dimethyl-8-(3-(trifluoromethoxy)phenoxy)-1H-purine-2,6(3H,7H)-dione], the IC50 is 100 to 500 nM.

`CCCC(=O)c1cccc(Cc2nc3c(c(=O)n(C)c(=O)n3C)n2Cc2cccc(Br)c2)c1` [Compound 161, 7-(3-bromobenzyl)-8-(3-butyrylbenzyl)-1,3-dimethyl-1H-purine-2,6(3H,7H)-dione]: the IC50 was 2000 to 10000 nM.

As to `CNCc1cccc(Oc2nc3c(c(=O)n(C)c(=O)n3C)n2Cc2ccc(Cl)cc2)c1` [Compound 163, 7-(4-Chlorobenzyl)-1,3-dimethyl-8-(3-((methylaminol)methyl)phenoxy)-1H-purine-2,6(3H,7H)-dione hydrochloride], the IC50 is 2000 to 10000 nM.

In the case of `CN(C)Cc1cccc(Oc2nc3c(c(=O)n(C)c(=O)n3C)n2Cc2ccc(Cl)cc2)c1` [Compound 164, 7-(4-Chlorobenzyl)-8-(3-((dimethylaminol)methyl)phenoxy)-1,3-dimethyl-1H-purine-2,6(3H,7H)-dione hydrochloride], the IC50 is 2000 to 10000 nM.

Turning to `CCC(CO)NC(=O)C(C)Cc1nc2c(c(=O)n(C)c(=O)n2C)n1Cc1cccc(Br)c1` (stereo not drawn) [Compound 165], the IC50 was 2000 to 10000 nM.

Turning to `Cn1c(=O)c2c(nc(Oc3cccc(OC(F)(F)F)c3)n2Cc2cccc(OC(F)(F)F)c2)n(C)c1=O` [Compound 166, 1,3-dimethyl-7-(3-(trifluoromethoxy)benzyl)-8-(3-(trifluoromethoxy)phenoxy)-1H-purine-2,6(3H,7H)-dione], the IC50 was 100 to 500 nM.

As to `Cc1cccc(Cn2c(Oc3cccc(OC(F)(F)F)c3)nc3c2c(=O)n(C)c(=O)n3C)c1` [Compound 167, 1,3-dimethyl-7-(3-methylbenzyl)-8-(3-(trifluoromethoxy)phenoxy)-1H-purine-2,6(3H,7H)-dione], the IC50 was less than 100 nM.

With `Cn1c(=O)c2c(nc(Oc3cccc(OC(F)(F)F)c3)n2Cc2cccc(Cl)c2)n(C)c1=O` [Compound 168, 7-(3-chlorobenzyl)-1,3-dimethyl-8-(3-(trifluoromethoxy)phenoxy)-1H-purine-2,6(3H,7H)-dione], the IC50 was 100 to 500 nM.

As to `CCc1coc(CSc2nc3c(c(=O)n(C)c(=O)n3C)n2Cc2ccc(C#N)cc2)n1` [Compound 169, 4-((8-((4-ethyloxazol-2-yl)methylthio)-1,3-dimethyl-2,6-dioxo-2,3-dihydro-1H-purin-7(6H)-yl)methyl)benzonitrile], the IC50 is 1000 to 2000 nM.

For the molecule `CCc1coc(CSc2nc3c(c(=O)n(C)c(=O)n3C)n2Cc2cccc(C#N)c2)n1` [Compound 170, 3-((8-((4-ethyloxazol-2-yl)methylthio)-1,3-dimethyl-2,6-dioxo-2,3-dihydro-1H-purin-7(6H)-yl)methyl)benzonitrile], the IC50 is 2000 to 10000 nM.
